The test system of test [1] is Candida albicans. Briefly: Antifungal activity against Candida albicans by broth microdilution method. Format: functional. A general note: Broth dilution looks for growth in wells or tubes with falling amounts of substance.
Test [2] deals with Bacillus anthracis. Briefly: Antibacterial activity against Bacillus anthracis after 18 hrs by broth microdilution method. Format: functional.
Test [3] concerns Staphylococcus aureus. Briefly: Antibacterial activity against Staphylococcus aureus by broth microdilution method. Format: functional.
In test [4] the test system is Escherichia coli. Briefly: Antibacterial activity against Escherichia coli by broth microdilution method. The test is classed as functional.
In test [5] the test system is Mycobacterium tuberculosis. The test is described as follows: Antitubercular activity against Mycobacterium tuberculosis H37Rv after 7 days by microplate alamar blue assay. The test is classed as functional. The conditions noted are these: 168 h. (The colour change of resazurin is a common sign of viable cells or microbes.)
The test system of test [6] is Vero. Briefly: Cytotoxicity against african green monkey Vero cells by cell Titer_Glo assay. The test is classed as cell-based. The conditions noted are these: Chlorocebus sabaeus.

≈ marks a conversion by molar mass, not a printed value.

As for `C=C1CC[C@@H]2[C@](C)(CC[C@H]3[C@@]2(C)CC[C@H]2C(C)(C)CC[C@@H](O)[C@@]23C)[C@H]1CNC(=N)N` [SCYTOSCALAROL], the MIC in test [1] turned out to be 4 µM (≈ 1.66 µg/mL); in test [2], 6 µM (≈ 2.49 µg/mL); in test [3] it was 2 µM (≈ 0.831 µg/mL); in test [4], 30 µM (≈ 12.5 µg/mL); in test [5] it was 110 µM (≈ 45.7 µg/mL). For the same compound, the 50% inhibitory concentration (IC50) in test [6] was found to be 135 µM.

What is called MIC is the least concentration at which growth counts as inhibited. In general, IC50 refers to the midpoint of a concentration-inhibition curve.

For the origin of these results see ChEMBL document CHEMBL1153715, “An antimicrobial guanidine-bearing sesterterpene from the cultured cyanobacterium Scytonema sp” (J Nat Prod, 2009).
